This passage reports Ratio, MIC and IC50 results from ChEMBL document CHEMBL1131513, “SAR studies of diaryltriazoles against bacterial two-component regulatory systems and their antibacterial activities” (Bioorg Med Chem Lett, 1998).

Values after ≈ are worked out from the molar mass of the structure shown.

Experiment [1] can be described thus: Ratio of NRII-NRI to KinA-Spo0F IC50s.
In experiment [2] the test system is Bacteria. Put plainly: Minimum inhibitory concentration for Gram-positive antibacterial activity by using standard MIC broth assay method; 0.5-2. It is filed as functional.
The target in experiment [3] is T1, KinA/Spo0F (sporulation kinase A/sporulation initiation phosphotransferase F) (Bacillus subtilis (strain 168), UniProt P06628+P16497).
T1 sequence (P06628 whole entry): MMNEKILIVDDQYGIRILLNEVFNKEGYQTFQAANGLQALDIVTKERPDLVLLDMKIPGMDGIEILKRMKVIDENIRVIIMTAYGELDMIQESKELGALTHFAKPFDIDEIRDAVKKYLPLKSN
T1 sequence (P16497 whole entry): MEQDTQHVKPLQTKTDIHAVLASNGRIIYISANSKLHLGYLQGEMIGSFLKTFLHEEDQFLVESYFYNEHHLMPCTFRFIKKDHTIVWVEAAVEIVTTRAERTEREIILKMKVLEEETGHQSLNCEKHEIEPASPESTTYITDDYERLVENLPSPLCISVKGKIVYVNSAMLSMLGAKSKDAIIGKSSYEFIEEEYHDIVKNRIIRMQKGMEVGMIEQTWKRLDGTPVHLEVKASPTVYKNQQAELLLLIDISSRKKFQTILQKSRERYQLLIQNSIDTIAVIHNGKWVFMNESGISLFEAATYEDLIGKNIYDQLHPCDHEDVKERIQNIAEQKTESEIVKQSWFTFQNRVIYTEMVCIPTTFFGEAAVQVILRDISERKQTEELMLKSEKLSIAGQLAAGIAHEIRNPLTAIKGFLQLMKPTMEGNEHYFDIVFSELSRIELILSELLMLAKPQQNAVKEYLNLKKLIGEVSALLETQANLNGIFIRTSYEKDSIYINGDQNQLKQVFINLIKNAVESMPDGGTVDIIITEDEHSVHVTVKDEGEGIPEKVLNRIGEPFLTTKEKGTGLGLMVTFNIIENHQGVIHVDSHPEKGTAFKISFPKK
Put plainly: Ability to inhibit autophosphorylation of KinA/Sp0F assay. The format is protein assay.

The nature of experiment [4]: (§1) Inhibition of NRII and/or NRI phosphorylation in Escherichia coli.
A short description of experiment [5]: as §1. It is filed as functional.
The test system of experiment [6] is Bacteria. The experiment is described as follows: Minimum inhibitory concentration for Gram-positive antibacterial activity by using standard MIC broth assay method. The format is functional.
In experiment [7] the test system is Bacteria. Put plainly: Minimum inhibitory concentration for Gram-positive antibacterial activity by using standard MIC broth assay method; 8-16. The format is functional.
For experiment [8], the system named is Bacteria. Put plainly: Minimum inhibitory concentration for Gram-positive antibacterial activity by using standard MIC broth assay method; 0.25-0.5. It is filed as functional.
For experiment [9], the system named is Bacteria. Put plainly: Minimum inhibitory concentration for Gram-positive antibacterial activity by using standard MIC broth assay method; 4-8. The format is functional.
Experiment [10] relates to Bacteria. The experiment is described as follows: Minimum inhibitory concentration for Gram-positive antibacterial activity by using standard MIC broth assay method; 0.25-1. The format is functional.
The test system of experiment [11] is Bacteria. Put plainly: Minimum inhibitory concentration for Gram-positive antibacterial activity by using standard MIC broth assay method; 0.1-0.5. It is filed as functional.
For experiment [12], the system named is Bacteria. Put plainly: Minimum inhibitory concentration for Gram-positive antibacterial activity by using standard MIC broth assay method; 0.5-1. It is filed as functional.

As for `Oc1c(Cl)cc(Cl)cc1-c1n[nH]c(-c2ccc(Cl)cc2)n1`, the Ratio in experiment [1] was 0.71. The MIC (commonly the lowest concentration that inhibits growth of the organism) in experiment [2] is 0.5 mg/L (≈ 1.47 µM). Moreover, the IC50 (commonly the concentration needed to halve the response being measured) in experiment [3] is 80 µM; in [4], 57 µM.

`O=[N+]([O-])c1cc(-c2n[nH]c(-c3ccc(Cl)c(Cl)c3)n2)c(O)c([N+](=O)[O-])c1`: the Ratio in [1] was found to be 3.5. In addition, the IC50 in experiment [3] is 8 µM; in [5] it was 28 µM. Moreover, the MIC in experiment [6] is > 64 mg/L.

The compound `NS(=O)(=O)c1ccc(O)c(-c2n[nH]c(-c3ccc(Cl)c(Cl)c3)n2)c1` registered an IC50 in experiment [3] of 91 µM. In experiment [7], this compound registered an MIC of 8 mg/L (≈ 20.8 µM).

For the compound `Oc1c(Cl)cc(Cl)cc1-c1n[nH]c(-c2ccc(Cl)c(Cl)c2)n1`, the Ratio in experiment [1] is 2.2. For the same compound, the IC50 in experiment [3] came out at 67 µM; in experiment [4], 150 µM. In experiment [8], this compound registered an MIC of 0.25 mg/L (≈ 0.667 µM).

In the case of `Cc1ccc(-c2n[nH]c(-c3cc(Cl)cc(Cl)c3O)n2)cc1C`, the IC50 in [3] was > 500 µM. Further, the MIC in experiment [9] was found to be 4 mg/L (≈ 12 µM).

For the compound `Oc1c(Br)cc(Br)cc1-c1n[nH]c(-c2ccc(Cl)c(Cl)c2)n1`, the IC50 in [3] came to 24 µM. The compound further returned an MIC in experiment [8] of 0.25 mg/L (≈ 0.539 µM).

As to `Oc1c(Cl)cc(Cl)cc1-c1n[nH]c(-c2ccccc2)n1`, the IC50 in [3] turned out to be 380 µM.

In the case of `Oc1ccc(Cl)cc1-c1n[nH]c(-c2ccc(Cl)c(Cl)c2)n1`, the IC50 in experiment [3] was > 500 µM. For the same compound, the MIC in [6] was > 32 mg/L.

Compound `Oc1c(-c2n[nH]c(-c3ccc(Cl)c(Cl)c3)n2)cc(C(F)(F)F)cc1C(F)(F)F` returned an IC50 in [3] of 44 µM. For the same compound, it took 0.25 mg/L (≈ 0.565 µM) to inhibit growth in experiment [10] (MIC).

With `Oc1c(Cl)cccc1-c1n[nH]c(-c2ccc(Cl)c(Cl)c2)n1`, the IC50 in [3] is > 500 µM.

Turning to `Oc1c(Cl)cc(Cl)cc1-c1n[nH]c(-c2ccc(Cl)c(C(F)(F)F)c2)n1`, in experiment [1], the Ratio was 4.1. For the same compound, the IC50 in [3] turned out to be 16 µM; in [4], 65 µM. This compound returned an MIC in [10] of 0.25 mg/L (≈ 0.612 µM).

For `O=[N+]([O-])c1ccc(-c2nc(-c3cc(Cl)cc(Cl)c3O)n[nH]2)cc1`, the IC50 in experiment [3] is > 500 µM.

In [3], `O=C(Nc1ccc(Cl)c(Cl)c1)c1cc(Cl)cc(Cl)c1O` [3,3',4',5-TETRACHLOROSALICYLANILIDE] displayed an IC50 of 37 µM. Moreover, the MIC in [11] was found to be 0.1 mg/L (≈ 0.285 µM).

For `COc1ccc(-c2n[nH]c(-c3cc(Cl)cc(Cl)c3O)n2)cc1`, in experiment [3], the IC50 is > 500 µM.

As for `CC(C)c1ccc(-c2n[nH]c(-c3cc(Cl)cc(Cl)c3O)n2)cc1`, the IC50 in experiment [3] was > 500 µM.

On to `Oc1c(Br)cc(Br)cc1-c1n[nH]c(-c2ccc(Oc3ccccc3)cc2)n1`, for which, in [1], the Ratio stood at 0.75. The half-inhibitory concentration (IC50) is 100 µM in experiment [3] and 75 µM in experiment [4].

Consider `Oc1c(Cl)cc(Cl)cc1-c1n[nH]c(-c2cccc(Cl)c2)n1`, for which the Ratio in experiment [1] stood at 1.5. In addition, the MIC in experiment [12] stood at 0.5 mg/L (≈ 1.47 µM). The IC50 in experiment [3] came to 87 µM; in experiment [4], 130 µM.

Take `CC(C)(C)c1cc(-c2n[nH]c(-c3ccc(Cl)c(Cl)c3)n2)c(O)c(C(C)(C)C)c1`: the IC50 in experiment [3] was > 500 µM.
